# Measured values reported in ChEMBL document CHEMBL5360538, “Recent updates on 1,2,3-triazole-containing hybrids with in vivo therapeutic potential against cancers: A mini-review” (Eur J Med Chem, 2023).
# Legend:
# [1] = Antiproliferative activity against human IMR-90 cells assessed as inhibition of cell growth by MTT assay; format: toxicity, cell-based
# [2] = tested on: A549; assay: Antiproliferative activity against human A549 cells assessed as inhibition of cell growth by MTT assay; format: functional, cell-based
# [3] = tested on: A549; assay: Antitumor activity against human A549 cells xenografted in zebrafish model assessed as reduction in tumor focal area at 2.5 uM relative to control; format: functional; design: scale not given: the % may be the effect or the level left
# [4] = Half life in BALB/c mouse at 45 mg/kg, ip measured up to 24 hrs; format: ADME, organism-based; settings: in vivo
# [5] = Antitumor activity against human Topotecan-resistant S1M180 cells over expressing BCRP xenografted in BALB/c nude mouse model assessed as reduction in tumor volume at 45 mg/kg, ip administered every 2 days for 6 times relative to control; format: functional, Topotecan-resistant S1M180 cell; design: scale not given: the % may be the effect or the level left; settings: time 12 day
# [6] = Tmax in BALB/c mouse at 45 mg/kg, ip measured up to 24 hrs; format: ADME, organism-based; settings: in vivo
# [7] = Cmax in BALB/c mouse at 45 mg/kg, ip measured up to 24 hrs; format: ADME, organism-based; design: time < 24 hrs, dose 45 mg/kg, route ip; settings: in vivo
# [8] = Antiproliferative activity against BCRP-mediated Topotecan-resistant HEK293/R2 cells assessed as inhibition of cell growth incubated for 5 days by MTS assay; format: functional, cell-based; settings: Homo sapiens, HEK293/R2, 120 h
# [9] = AUC(0 to infinity) in BALB/c mouse at 45 mg/kg, ip measured up to 24 hrs; format: ADME, organism-based; design: dose 45 mg/kg, time < 24 hrs, route ip; settings: in vivo
# [10] = Antitumor activity against human Topotecan-resistant S1M180 cells over expressing BCRP xenografted in BALB/c nude mouse model assessed as fold change in topotecan level at 45 mg/kg, ip administered every 2 days for 6 times relative to control; format: functional, Topotecan-resistant S1M180 cell; settings: time 12 day
# [11] = Antiproliferative activity against […]-mediated human Doxorubicin-resistant 2008/MRP1 cells assessed as inhibition of cell growth incubated for 5 days by MTS assay; format: functional, cell-based, Doxorubicin-resistant 2008/MRP1 cell; settings: 2008/MRP1, 120 h
# [12] = Antiproliferative activity against BCRP-mediated human Topotecan-resistant MCF7/MX100 cells assessed as inhibition of cell growth incubated for 5 days by MTS assay; format: functional, cell-based; settings: MCF7/MX100, 120 h
# [13] = Antiproliferative activity against BCRP-mediated human Doxorubicin-resistant S1M180 cells assessed as inhibition of cell growth incubated for 5 days by MTS assay; format: functional, cell-based; settings: S1-M1-80, 120 h
# [14] = Antiproliferative activity against BCRP-mediated human Topotecan-resistant S1M180 cells assessed as inhibition of cell growth incubated for 5 days by MTS assay; format: functional, cell-based; settings: 120 h
# [15] = tested on: MCF7; assay: cells; settings: Homo sapiens
# [16] = tested on: 4T1; assay: Antitumor activity against mouse 4T1 cells implanted mouse model assessed as inhibition of tumor growth at 15 mg/kg, ip relative to control; format: functional
# [17] = tested on: HepG2; assay: Antiproliferative activity against human HepG2 cells assessed as inhibition of cell growth incubated for 72 hrs by MTT assay; format: functional, cell-based; settings: HepG2, 72 h
# [18] = tested on: Hep 3B2; assay: Antiproliferative activity against human Hep3B cells assessed as inhibition of cell growth incubated for 72 hrs by MTT assay; format: functional, cell-based
# [19] = tested on: H22; assay: Antitumor activity against […] cells xenografted in BALB/c mouse model assessed as inhibition of tumor growth at 15 mg/kg, ip administered every 2 days for 15 days relative to control; format: functional; settings: H22, 360 h, time 15 day
# [20] = tested on: H22; assay: Antitumor activity against […] cells xenografted in BALB/c mouse model assessed as inhibition of tumor growth at 45 mg/kg, ip administered every 2 days for 15 days relative to control; format: functional; settings: H22, 360 h, time 15 day
# [21] = tested on: MGC-803; assay: Antitumor activity against human MGC-803 cells xenografted in BALB/c nude mouse model assessed as inhibition of tumor growth at 60 mg/kg, IG administered daily for 21 days relative to control; format: functional; settings: MGC-803, po, 504 h, time 21 day
# [22] = tested on: SGC-7901; assay: Potency index, ratio of 5-fluorouracil IC50 to test compound IC50 for antiproliferative activity against human SGC-7901 cells assessed as inhibition of cell growth incubated for 72 hrs by MTT assay; format: functional
# [23] = tested on: SGC-7901; assay: Antiproliferative activity against human SGC-7901 cells assessed as inhibition of cell growth incubated for 72 hrs by MTT assay; format: functional, cell-based; settings: SGC-7901, 72 h
# [24] = tested on: BGC-823; assay: Antiproliferative activity against human BGC-823 cells assessed as inhibition of cell growth incubated for 72 hrs by MTT assay; format: functional, cell-based; settings: BGC-823, 72 h
# [25] = tested on: MGC-803; assay: Antiproliferative activity against human MGC-803 cells assessed as inhibition of cell growth incubated for 72 hrs by MTT assay; format: functional, cell-based; settings: MGC-803, 72 h
# [26] = tested on: MGC-803; assay: Potency index, ratio of 5-fluorouracil IC50 to test compound IC50 for antiproliferative activity against human MGC-803 cells assessed as inhibition of cell growth incubated for 72 hrs by MTT assay; format: functional
# [27] = tested on: BGC-823; assay: Potency index, ratio of 5-fluorouracil IC50 to test compound IC50 for antiproliferative activity against human BGC-823 cells assessed as inhibition of cell growth incubated for 72 hrs by MTT assay; format: functional
# [28] = tested on: MDA-MB-231; assay: Antiproliferative activity against human MDA-MB-231 cells assessed as inhibition of cell growth by MTT assay; format: functional, cell-based
# [29] = tested on: HT-29; assay: Antiproliferative activity against human HT-29 cells assessed as inhibition of cell growth by MTT assay; format: functional, cell-based
# [30] = tested on: SGC-7901; assay: Antiproliferative activity against human SGC-7901 cells assessed as inhibition of cell growth by MTT assay; format: functional, cell-based
# [31] = tested on: A549/TR; assay: Antiproliferative activity against taxol-resistant human A549/Taxol cells assessed as inhibition of cell growth by MTT assay; format: functional, cell-based
# [32] = tested on: HepG2; assay: Antiproliferative activity against human HepG2 cells assessed as inhibition of cell growth by MTT assay; format: functional, cell-based
# [33] = tested on: Bel-7402; assay: Antiproliferative activity against human Bel-7402 cells assessed as inhibition of cell growth by MTT assay; format: functional, cell-based
# [34] = tested on: A549; assay: Antitumor activity against human A549 cells xenografted in BALB/c nude mouse model assessed as inhibition of tumor growth at 80 mg/kg, ip administered every other day for 7 times relative to control; format: functional
# [35] = tested on: NCI-H460; assay: Antiproliferative activity against human NCI-H460 cells assessed as inhibition of cell growth by MTT assay; format: functional, cell-based
structure (smiles),measurement,setting,value
COc1cc(/C=C/C(=O)C(Cc2cn(Cc3ccc(Cl)c(Cl)c3)nn2)C(=O)/C=C/c2ccc(O)c(OC)c2)ccc1O,IC50,[1],> 100 µM
same,IC50,[2],2.27 µM
same,Activity,[3],39.07%
COC(=O)c1cccc(COc2c(-c3ccc(OCCOCCc4cn(CN(Cc5ccccc5)Cn5cc(CCOCCOc6ccc(-c7oc8ccccc8c(=O)c7OCc7cccc(C(=O)OC)c7)cc6)nn5)nn4)cc3)oc3ccccc3c2=O)c1,half-life,[4],10.6 h
same,Activity,[5],40%
same,Tmax,[6],3 h
same,Cmax,[7],15700 ng/mL
same,EC50,[8],0.0033 µM
same,AUC(0-inf),[9],83500 ng·h/mL
same,fold change (FC),[10],2
same,EC50,[11],0.0033 µM
same,EC50,[12],0.0033 µM
same,EC50,[13],0.0033 µM
same,EC50,[14],0.0033 µM
Clc1ccc(N/N=C/c2cn(-c3cc(Cl)cc(Cl)c3)nn2)cc1,IC50,[15],3.2 µM
same,inhibition in vivo at 15 mg/kg,[16],> 60%
COc1cc(C(=O)c2nn(-c3ccccc3)nc2N2CCC(N)CC2)cc(OC)c1OC,IC50,[17],0.0596 µM
same,IC50,[18],0.0409 µM
same,inhibition in vivo at 15 mg/kg,[19],66%
same,inhibition in vivo at 45 mg/kg,[20],82%
Cc1cc(=O)oc2cc(OCc3cn(-c4ccc(S(N)(=O)=O)cc4)nn3)ccc12,inhibition in vivo at 60 mg/kg,[21],64.2%
same,Ratio IC50,[22],4.1
same,IC50,[23],3.5 µM
same,IC50,[24],0.4 µM
same,IC50,[25],3.4 µM
same,Ratio IC50,[26],4.1
same,Ratio IC50,[27],4.1
COc1cc(C(=O)c2nn(-c3ccccc3F)nc2N2CC(O)C2)cc(OC)c1OC,IC50,[28],0.0654 µM
same,IC50,[29],0.0654 µM
same,IC50,[30],0.063 µM
same,IC50,[31],0.0654 µM
same,IC50,[32],0.0654 µM
same,IC50,[33],0.0654 µM
same,inhibition in vivo at 80 mg/kg,[34],60%
same,IC50,[35],0.0654 µM
same,IC50,[15],0.063 µM
same,IC50,[2],0.063 µM
